The results in this text go back to patent US11986478B2 (priority 2021, dated 2024).

Where two headings read alike, the source gives them in different places.

Series [1] relates to MERS-CoV. It counts as cell-based.
Series [2] concerns SARS-CoV-2. It counts as cell-based.
Series [3] addresses T1, MERS-CoV PLpro (Middle East respiratory syndrome-related coronavirus, UniProt K9N7C7). It counts as biochemical.
Series [4] concerns the target T2, SARS-CoV-2 PLpro (Severe acute respiratory syndrome coronavirus 2, UniProt P0DTD1). It counts as biochemical.
Series [5] relates to SARS-CoV-2. The series can be described thus: microbe, parasite or virus in culture. It is filed as cell-based. The following applies: Severe acute respiratory syndrome coronavirus 2, read-out: EC50 anti-SARS-CoV-2 activity.
Series [6] concerns the target T2, SARS-CoV-2 PLpro. In words: biochemical. It is filed as biochemical.
A further series deals with human DUBs. It is filed as biochemical.
The target of series [7] is T2, SARS-CoV-2 PLpro. It counts as cell-based.
Another series has as its system hCoV-229E. It is filed as cell-based.
Series [8] concerns Huh7, VeroE6/TMPRSS2, Calu-3, Caco-2, BSC1 cells and human embryonic lung fibroblasts (HELF).
In series [9] the test system is SARS-CoV-2-infected Caco-2 cells. It is filed as cell-based, human.
Series [10] deals with T1, MERS-CoV PLpro. It is filed as cell-based.
Series [11] relates to MERS-CoV-infected Huh-7 cells. It counts as cell-based, human.
The target in series [12] is T2, SARS-CoV-2 PLpro. It counts as biochemical. The source holds these as a separate data set.
The test system of series [13] is cellular proteases (serine, cysteine and acid proteases) in Huh-7, Caco-2 and A549 lysates. It is filed as biochemical, human.
In series [14] the target is T1, MERS-CoV PLpro. It counts as biochemical. This is another data set of the same source.
Series [15] deals with MERS-CoV. It is filed as cell-based. The source holds these as a separate data set.
Series [16] relates to MERS-CoV. It counts as cell-based. The source holds these as a separate data set.
The test system of another series is Caco-2 and Huh-7 cells. It is filed as cell-based, human.
A further series concerns hCoV-OC43. It counts as cell-based.
Series [17] has as its system SARS-CoV-2. It counts as cell-based. The source holds these as a separate data set.
Series [18] relates to SARS-CoV-2. Further details: species or system golden Syrian hamster. The following applies: hamster, in vivo.
The mark [19] stands for this setting: read-out: IC50 against SARS-CoV-2-PLpro.

T1 sequence (K9N7C7 1552-1823 limits assumed): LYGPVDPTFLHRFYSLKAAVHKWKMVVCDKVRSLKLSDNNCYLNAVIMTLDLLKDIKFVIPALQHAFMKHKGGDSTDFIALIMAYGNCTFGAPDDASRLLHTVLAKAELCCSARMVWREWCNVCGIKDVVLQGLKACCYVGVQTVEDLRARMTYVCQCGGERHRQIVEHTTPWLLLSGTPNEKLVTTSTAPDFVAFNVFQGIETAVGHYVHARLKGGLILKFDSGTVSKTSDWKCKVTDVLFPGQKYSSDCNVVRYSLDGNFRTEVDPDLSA

GRL0617 [reference compound]: the “inhibition of virus replication by NP antigen immunofluorescence” value in the series on MERS-CoV [1] and in the series with SARS-CoV-2 [2] was “marginal virus suppression” throughout. Also, the “effect on MERS-CoV-PLpro activity” value on MERS-CoV PLpro [3] is listed as “without impairing the MERS-CoV-PLpro activity”. Besides, the “modification of PLpro by HA-Ub-VS” value on SARS-CoV-2 PLpro [4] is reported as “almost completely eliminated”.

In the case of `COc1cc2c(=O)[nH]c3c(C(=O)Nc4cc(Cl)ccc4C)sc(=S)n3c2cc1OC` [Compound F0326], the EC50 (commonly the concentration at which the effect is half-maximal) in the series with SARS-CoV-2 [5] amounted to 7.6 µM. Besides, the IC50 – broadly, the concentration that inhibits the measured activity by half – against SARS-CoV-2 PLpro [6] stood at 8.2 µM.

As to `CCN1C(=O)C=CC1=O` [NEM, N-ethyl-maleimide, reference compound], in the series with human DUBs, the “modification of cellular DUBs by HA-Ub-VS” value is listed as “diminished the modification of HA-Ub-VS on DUBs”.

Turning to `O=C(Nc1ccccc1Cl)c1sc(=S)n2c1[nH]c(=O)c1ccccc12` [Compound F0213], in the series on SARS-CoV-2 [5], the EC50 amounted to 4.5 µM. Moreover, the “rescue of IFN-β, IRF3 and NF-κB reporter gene expression” value at SARS-CoV-2 PLpro [7] and on MERS-CoV PLpro [10] was “rescued the genes expression in a dose-dependent manner” in each case. Further, the results for the “decrease of viral yields” value in the series with hCoV-229E, with MERS-CoV [16] and with hCoV-OC43 were “about 2 log 10”, “about 3 log 10” and “around 1.5 log 10”, respectively. Further, the “inhibition of virus replication by NP antigen immunofluorescence” value with MERS-CoV [1] and with SARS-CoV-2 [2] was “significant inhibition of virus replication” throughout. Further, in series [8], the “cytotoxicity in the matching cell lines” value is “negligible cytotoxicity”. For the same compound, the “expression of IFN-responsive genes ISG15 and PKR” value in [9] is on record as “significantly enhanced”. In addition, the “transcription levels of ISG15 and PKR” value in series [11] is given as “reduced”. Besides, the “cleavage of ISG15-AMC and Ubiquitin-AMC” value on SARS-CoV-2 PLpro [12] and on MERS-CoV PLpro [14] was “inhibited cleavage” each time. Besides, the “modification of PLpro by HA-Ub-VS” value at SARS-CoV-2 PLpro [4] is recorded as “eliminated in the presence of GRL0617 but not F0213”. The cellular protease activity entry in series [13] is listed as “not affected”. For the same compound, the “antiviral EC50 against MERS-CoV compared with SARS-CoV-2” value in the series with MERS-CoV [15] is reported as “lower antiviral EC50 against MERS-CoV than SARS-CoV-2”. Also, the cellular antiviral signaling entry in the series on Caco-2 and Huh-7 cells is listed as “potentiated the cellular antiviral signaling”. Moreover, the “modification of cellular DUBs by HA-Ub-VS” value with human DUBs is on record as “no change was noted in the immunoblot pattern”. The “reduction of SARS-CoV-2 viral yields” value in the series with SARS-CoV-2 [17] is recorded as “more than 1 log 10”. Besides, in the series with SARS-CoV-2 [18], the “SARS-CoV-2 N expression in lung by immunofluorescence” value is recorded as “reduced N expression”. Also, the “SARS-CoV-2 genome copies in the lungs” value in the series on SARS-CoV-2 [18] is given as “suppression”. Moreover, the “lung damage by H & E staining” value with SARS-CoV-2 [18] is “improved morphology and milder infiltrations”. Besides, the “decrease of virus plaque-forming units in lung tissues” value with SARS-CoV-2 [18] (5 mg/kg/day) is 1-2 log 10. Further, the “efficacy by route on lung genome copies” value with SARS-CoV-2 [18] (5 mg/kg/day) is recorded as “superior efficacy via PO route than that of IP injection”. Besides, on SARS-CoV-2 PLpro [6] (setting [19]), the IC50 was found to be 7.4 µM.

`Cc1cccc(NC(=O)c2sc(=S)n3c2[nH]c(=O)c2cc4c(cc23)OCO4)c1` [Compound F0393]: the IC50 at SARS-CoV-2 PLpro [6] (setting [19]) came out at 15.8 µM.
